This assay concerns the target Aldo-keto reductase family 1 member C4 (Homo sapiens) (UniProt P17516). The assay can be described thus: AKR1C4 binders by thermal shift, biophysical, DSF, SYPRO orange, with or without NADPH (AID 381). Conditions: recombinant AKR1C4, DSF thermal shift, at 10 µM, buffer 10 mM HEPES, active compounds read high.
Where [1] appears, read: pH 7.5, NaCl 150 mM, protein 2 µM.
The mark [2] stands for this setting: pH 7.5, NaCl 150 mM, NADPH 20 µM, protein 2 µM.

Molecules are shown by their SMILES.

Sequence of Aldo-keto reductase family 1 member C4 (Homo sapiens) (P17516 whole entry, looked up): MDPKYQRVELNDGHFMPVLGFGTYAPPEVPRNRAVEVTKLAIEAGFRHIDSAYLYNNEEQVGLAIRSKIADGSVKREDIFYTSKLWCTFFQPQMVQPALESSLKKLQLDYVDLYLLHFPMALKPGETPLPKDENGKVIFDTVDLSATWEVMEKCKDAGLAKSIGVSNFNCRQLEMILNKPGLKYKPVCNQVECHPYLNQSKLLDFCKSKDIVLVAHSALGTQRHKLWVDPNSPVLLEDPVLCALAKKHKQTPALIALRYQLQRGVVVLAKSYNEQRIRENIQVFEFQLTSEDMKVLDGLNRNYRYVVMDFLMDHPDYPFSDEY

For the molecule `O=c1cc(-c2ccccc2)oc2cc(O)c(O)c(O)c12`, where the note is “NaCl 150 mM, pH 7.5, protein 2 µM”, the Tm shift was 3.5 Celsius.

Take `CC1(C)[C@@H](OC(=O)CCC(=O)O)CC[C@]2(C)[C@H]3C(=O)C=C4[C@@H]5C[C@@](C)(C(=O)O)CC[C@]5(C)CC[C@@]4(C)[C@]3(C)CC[C@@H]12`: under setting [1], the Tm shift was 7.3 Celsius. In the case of `CC1(C)[C@@H](O)CC[C@]2(C)[C@H]3C(=O)C=C4[C@H]5C[C@@](C)(C(=O)O)CC[C@]5(C)CC[C@@]4(C)[C@]3(C)CC[C@@H]12`, under setting [1], the Tm shift was 5.2 Celsius.

In the case of `O=c1cc(-c2ccc(O)cc2)oc2cc(O)cc(O)c12`, the Tm shift under setting [1] was 2.2 Celsius. With `O=c1cc(-c2ccccc2)oc2cc(O)cc(O)c12`, the Tm shift under setting [1] is 2.3 Celsius. Consider `Oc1cc(Cl)ccc1Oc1ccc(Cl)cc1Cl`, for which, under setting [2], the Tm shift is 2.3 Celsius. Regarding `CC1CC(C)(C)NC(=S)N1CCCC(=O)N1CCN(C(c2ccccc2)c2ccc(Cl)cc2)CC1` (configuration not stated), the Tm shift under setting [1] was 2.4 Celsius. In the case of `C[C@]12CC[C@H]3C(=CCc4cc(O)ccc43)[C@@H]1CCC2=O`, the Tm shift under setting [2] was 4.5 Celsius. `CC1(C)[C@@H](O)CC[C@]2(C)[C@H]3C(=O)C=C4[C@@H]5C[C@@](C)(C(=O)O)CC[C@]5(C)CC[C@@]4(C)[C@]3(C)CC[C@@H]12`: the Tm shift under setting [1] is 5 Celsius. With `CC(=O)[C@H]1CC[C@H]2[C@@H]3CCC4=CC(=O)CC[C@]4(C)[C@H]3CC[C@]12C`, under setting [2], the Tm shift is 4.5 Celsius. Consider `C[C@]12CC[C@H]3[C@@H](CCC4=CC(=O)CC[C@@]43C)[C@@H]1CC[C@@H]2O`, for which the Tm shift under setting [2] was 5.3 Celsius. As to `O=C1C(=O)C(c2ccc(O)cc2O)Oc2cc(O)cc(O)c21` (configuration not stated), the Tm shift under setting [1] was 2.1 Celsius.

(Values after PubChem BioAssay AID381 (SGCOxCompounds, 2006).)
